Read-outs that look alike come from different tables or passages of the source.
Assays:
[1] = tested on: A2780 cells; test: SRB binding assay, cytostasis, 48 h treatment; format: cell-based; conditions: for A2780 SRB Max Inhibition: up to 100 μM, ND = not detectable
Protocol: (§1) The complexes described above are intended to replace registered platinum complexes. Platinum complexes constitute the core of the chemotherapy regimen used in ovarian cancer; therefore, we used a cellular model of ovarian cancer, A2780, and primary human dermal fibroblasts as models of non-transformed cells (controls). For the characterization of the complexes, we used an MTT assay after 4 h of treatment for the detection of early toxicity and an SRB assay 48 h after treatment for the detection of cytostasis.
An SRB assay measures protein content of cells in correlation with the cell number in an assay well and can therefore be used to assess cell proliferation or long-term cytostasis. Cells were seeded in 96-well plates the day before the assay. Cells were treated with the compounds for 48 h. Then medium was removed, and cells were fixed with 10% trichloroacetic acid. Fixed cells were washed in distilled water 3 times, followed by staining with SRB (0.4 m/V% dissolved in 1% acetic acid) for 10 min. Stained cells were washed in 1% acetic acid 5 times; acetic acid was removed, and cells were left to dry. Protein-bound SRB was released by adding 100 μL 10 mM Tris base. Plates were measured in a plate photometer (Thermo Scientific Multiscan GO spectrophotometer, Waltham, MA, USA) at 540 nm. On each plate, wells were designed to contain vehicle-treated cells. In calculations, the readings for these wells were considered to be 1, and all readings were expressed relative to these values.
(§2) Statistical analysis was performed using version 8.0.1 of GraphPad Prism. Values were tested for normal distribution using the Shapiro–Wilk normality test. Nonlinear regression was performed using the built-in “[Inhibitor] vs. response—Variable slope (four parameters), least square fit” utility of GraphPad, which yielded IC50 and Hill slope values if the sigmoid curves reached a plateau of inhibition and there was no decrease between two subsequent data points or when inhibition was over 90%. In other cases, the percentage of inhibition was taken for the maximum concentration (100 μM).

[2] = tested on: methicillin-resistant Staphylococcus aureus (MRSA) clinical isolates; test: Broth microdilution MIC, clinical MRSA isolates; format: cell-based; conditions: 24 h, 0.08–40 μM
Protocol: (§3) We used a set of clinical isolates of S. aureus and E. faecium that were collected at the Medical Center of the University of Debrecen (Hungary) between 1 January 2018. and 31 December 2020. The clinical isolates were identified using a Microflex MALDI-TOF mass spectrometer (Bruker, Billerica, MA, USA). The antibiotic susceptibility of the isolates was tested following the European Committee on Antimicrobial Susceptibility Testing (EUCAST) guidelines, which were valid at the time of collection.
(§4) Microdilution experiments were performed according to the standards of EUCAST [85]. The bacterial isolates to be tested were grown on Mueller–Hinton agar plates. The inoculum density of bacteria was set at 5.0 × 10^5 CFU/mL in microtiter plates in a final volume of 200 μL Mueller–Hinton broth. The tested concentration range was 0.08–40 μM (10 concentrations, twofold serial dilutions), and a drug-free growth control and an inoculum-free negative control were included. The inoculated plates were incubated for 24 h at 37 °C, then visually assessed. Minimum inhibitory concentration (MIC) was defined as the lowest concentration with a 50%≤ inhibitory effect compared to the growth control. All experiments were performed at least twice in duplicate.

[3] = Distribution coefficient (logD), n-octanol-PBS; format: physicochemical; conditions: n-octanol-PBS (pH = 7.4) system
Protocol: The logD values of the newly synthesized complexes were determined according to a procedure described in our previous publications. page 64: Ir-7b +1.17 Rh-7b +1.41 Ru-7c +1.31 Os-7c +1.59 Ir-7c +1.40 Rh-7c +1.13 Ru-7d +1.26 Os-7d +1.42 Ir-7d +1.30 Rh-7d +1.04 Ru-7e +2.22 Os-7e +2.21 Ir-7e +1.39 Rh-7e +1.66 *logD was determined in an n-octanol-PBS (pH = 7.4) system 64 (14 pictures or pasted objects on this page, not shown here)

[4] = tested on: Enterococcus faecalis (ATCC29212); test: Broth microdilution MIC, reference strain; format: cell-based; conditions: 24 h, tested range 0.08–40 μM, read-out: MIC E. faecalis ATCC 29,212
Protocol: (§5) The reference strains of Staphylococcus aureus (ATCC29213) and Enterococcus faecalis (ATCC29212) were purchased from the ATCC (Manassas, VA, USA).
as §4

[5] = tested on: Staphylococcus aureus (ATCC29213); test: Broth microdilution MIC, reference strain; format: cell-based; conditions: 0.08–40 μM, read-out: MIC S. aureus ATCC 29213
Protocol: as §5, §4

[6] = tested on: vancomycin-resistant Enterococcus (VRE) clinical isolates; test: Broth microdilution MIC, clinical VRE isolates; format: cell-based, E. faecium; conditions: 24 h, 0.08–40 μM
Protocol: as §3, §4

[7] = tested on: primary human dermal fibroblasts; test: MTT reduction assay, early toxicity, 4 h treatment; format: cell-based; conditions: up to 100 μM
Protocol: as §1
(§6) An MTT reduction assay was measures the activity of mitochondrial complex I and can be used to detect toxicity. The assay was performed in a manner similar to that described in [84]. Briefly, cells were plated in 96-well plates the day before the assay. Cells were treated with the compounds for 4 h; then, MTT was added to a 0.5 mg/mL final concentration, and cells were incubated at 37 °C in a cell incubator for 40–60 min as a function of the cell line being assessed. Culture medium was removed, the reduced MTT dye was dissolved in dimethyl-sulfoxide, and plates were measured in a plate photometer (Thermo Scientific Multiscan GO spectrophotometer, Waltham, MA, USA) at 540 nm. On each plate, wells were designed to contain vehicle-treated cells. In calculations, the readings for these wells were considered to 1, and all readings were expressed relative to these values.
as §2

[8] = tested on: A2780 cells; test: MTT reduction assay, early toxicity, 4 h treatment; format: cell-based
Protocol: as §1, §6, §2

[9] = clinical isolate 20,426 MRSA, read-out: MIC 20,426 MRSA
[10] = clinical isolate 24,035 MRSA, read-out: MIC 24,035 MRSA
[11] = clinical isolate 24,268 MRSA, read-out: MIC 24,268 MRSA
[12] = clinical isolate 24,272 MRSA, read-out: MIC 24,272 MRSA
[13] = clinical isolate 24,328 MRSA, read-out: MIC 24,328 MRSA
[14] = clinical isolate 24,408 MRSA, read-out: MIC 24,408 MRSA
[15] = clinical isolate 25,051 VRE, read-out: MIC 25,051 VRE
[16] = clinical isolate 25,498 VRE, read-out: MIC 25,498 VRE
[17] = clinical isolate 27,085 VRE, read-out: MIC 27,085 VRE
[18] = inhibition at maximum concentration (100 μM) where no plateau, ND = not detectable

Cc1ccc(C(C)C)cc1.F[P-](F)(F)(F)(F)F.NC1C(c2cccnn2)OC(COC(=O)c2ccccc2)C(OC(=O)c2ccccc2)C1OC(=O)c1ccccc1.[Cl][Ru+] (mixture of isomers) [Ru-7b]
IC50 [1]: 17.8 µM | A2780 SRB Max Inhibition [1]: >90% | MIC [2, 9]: 10 µM | MIC [2, 10]: 10 µM | MIC [2, 11]: 10 µM | MIC [2, 12]: 20 µM | MIC [2, 13]: 20 µM | MIC [2, 14]: 10 µM | logD [3]: 1.39 | MIC [4]: 10 µM | MIC ([5]; 24 h): 20 µM | MIC [6, 15]: 10 µM | MIC [6, 16]: 10 µM | MIC [6, 17]: 10 µM | Fibroblast MTT Max Inhibition [7]: 47.04% | A2780 MTT Max Inhibition [8, 18]: 68.22%

Cc1c(C)c(C)[c-](C)c1C.F[P-](F)(F)(F)(F)F.NC1C(c2cccnn2)OC(COC(=O)c2ccccc2)C(OC(=O)c2ccccc2)C1OC(=O)c1ccccc1.[Cl][Ir+2] (mixture of isomers) [Ir-7b]
A2780 SRB Max Inhibition [1]: 77.58% | MIC [2, 9]: 40 µM | MIC [2, 10]: 40 µM | MIC [2, 11]: 40 µM | MIC [2, 12]: 40 µM | MIC [2, 13]: 40 µM | MIC [2, 14]: 40 µM | logD [3]: 1.17 | MIC [4]: 40 µM | MIC ([5]; 24 h): >40 µM | MIC [6, 15]: 40 µM | MIC [6, 16]: 40 µM | MIC [6, 17]: 40 µM | Fibroblast MTT Max Inhibition [7]: 27.22% | A2780 MTT Max Inhibition [8, 18]: 53.39%

Cc1ccc(C(C)C)cc1.F[P-](F)(F)(F)(F)F.N[C@@H]1[C@@H](OCc2ccccc2)[C@H](OCc2ccccc2)[C@@H](COCc2ccccc2)O[C@H]1c1cnccn1.[Cl][Ru+] [Ru-3d]
IC50 [1]: 3.77 µM | A2780 SRB Max Inhibition [1]: >90% | MIC [2, 9]: 20 µM | MIC [2, 10]: 20 µM | MIC [2, 11]: 20 µM | MIC [2, 12]: 20 µM | MIC [2, 13]: 20 µM | MIC [2, 14]: 20 µM | logD [3]: 2.06 | MIC [4]: 20 µM | MIC ([5]; 24 h): 20 µM | MIC [6, 15]: 20 µM | MIC [6, 16]: 20 µM | MIC [6, 17]: 20 µM | Fibroblast MTT Max Inhibition [7]: 80.31% | IC50 [8]: 19.3 µM | A2780 MTT Max Inhibition [8, 18]: >90%

Cc1c(C)c(C)[c-](C)c1C.F[P-](F)(F)(F)(F)F.N[C@@H]1[C@@H](OC(=O)c2ccccc2)[C@H](OC(=O)c2ccccc2)[C@@H](COC(=O)c2ccccc2)O[C@H]1c1ccc2ccccc2n1.[Cl][Rh+2] [Rh-7e]
A2780 SRB Max Inhibition [1]: 67.32% | MIC [2, 9]: >40 µM | MIC [2, 10]: >40 µM | MIC [2, 11]: >40 µM | MIC [2, 12]: >40 µM | MIC [2, 13]: >40 µM | MIC [2, 14]: >40 µM | logD [3]: 1.66 | MIC [4]: >40 µM | MIC ([5]; 24 h): >40 µM | MIC [6, 15]: >40 µM | MIC [6, 16]: >40 µM | MIC [6, 17]: >40 µM | A2780 MTT Max Inhibition [8, 18]: 31.89%

Cc1c(C)c(C)[c-](C)c1C.F[P-](F)(F)(F)(F)F.N[C@@H]1[C@@H](OCc2ccccc2)[C@H](OCc2ccccc2)[C@@H](COCc2ccccc2)O[C@H]1c1ccccn1.[Cl][Rh+2] [Rh-3a]
IC50 [1]: 9.81 µM | A2780 SRB Max Inhibition [1]: >90% | MIC [2, 9]: >40 µM | MIC [2, 10]: >40 µM | MIC [2, 11]: >40 µM | MIC [2, 12]: >40 µM | MIC [2, 13]: >40 µM | MIC [2, 14]: >40 µM | logD [3]: 1.64 | MIC [4]: >40 µM | MIC ([5]; 24 h): >40 µM | MIC [6, 15]: >40 µM | MIC [6, 16]: >40 µM | MIC [6, 17]: >40 µM | Fibroblast MTT Max Inhibition [7]: 37.82%

Cc1ccc(C(C)C)cc1.F[P-](F)(F)(F)(F)F.N[C@@H]1[C@@H](OC(=O)c2ccccc2)[C@H](OC(=O)c2ccccc2)[C@@H](COC(=O)c2ccccc2)O[C@H]1c1ccc2ccccc2n1.[Cl][Os+] [Os-7e]
A2780 SRB Max Inhibition [1]: 67.50% | MIC [2, 9]: >40 µM | MIC [2, 10]: >40 µM | MIC [2, 11]: >40 µM | MIC [2, 12]: >40 µM | MIC [2, 13]: >40 µM | MIC [2, 14]: >40 µM | logD [3]: 2.21 | MIC [4]: >40 µM | MIC ([5]; 24 h): >40 µM | MIC [6, 15]: >40 µM | MIC [6, 16]: >40 µM | MIC [6, 17]: >40 µM | A2780 MTT Max Inhibition [8, 18]: 27.04%

N[C@@H]1[C@@H](OC(=O)c2ccccc2)[C@H](OC(=O)c2ccccc2)[C@@H](COC(=O)c2ccccc2)O[C@H]1c1cccnn1 [Complex 7b, 3-(2′-Amino-2′-deoxy-3′,4′,6′-tri-O-benzoyl-β-D-glucopyranosyl)pyridazine]
A2780 SRB Max Inhibition [1]: 18.38% | MIC ([2]; Staphylococcus aureus, clinical isolate 20,426 MRSA, read-out: MIC 20,426 MRSA): > 40 µM | MIC ([2]; Staphylococcus aureus, clinical isolate 24,035 MRSA, read-out: MIC 24,035 MRSA): > 40 µM | MIC ([2]; Staphylococcus aureus, clinical isolate 24,268 MRSA, read-out: MIC 24,268 MRSA): > 40 µM | MIC ([2]; Staphylococcus aureus, clinical isolate 24,272 MRSA, read-out: MIC 24,272 MRSA): > 40 µM | MIC ([2]; Staphylococcus aureus, clinical isolate 24,328 MRSA, read-out: MIC 24,328 MRSA): > 40 µM | MIC ([2]; Staphylococcus aureus, clinical isolate 24,408 MRSA, read-out: MIC 24,408 MRSA): > 40 µM | MIC ([4]; Enterococcus faecalis): > 40 µM | MIC ([5]; Staphylococcus aureus, ATCC29213, 24 h): > 40 µM | MIC ([6]; Enterococcus, clinical isolate 25,051 VRE, read-out: MIC 25,051 VRE): > 40 µM | MIC ([6]; Enterococcus, clinical isolate 25,498 VRE, read-out: MIC 25,498 VRE): > 40 µM | MIC ([6]; Enterococcus, clinical isolate 27,085 VRE, read-out: MIC 27,085 VRE): > 40 µM | Fibroblast MTT Max Inhibition [7]: 11.39% | inhibition at 100 µM ([8]; Homo sapiens, inhibition at maximum concentration (100 μM) where no plateau, ND = not detectable, read-out: A2780 MTT Max Inhibition): 9.12%

From publication PMC10096180, “Half-Sandwich Type Platinum-Group Metal Complexes of C-Glucosaminyl Azines: Synthesis and Antineoplastic and Antimicrobial Activities” (Molecules, 2023)
